This note sets out measurements from US11426402B2, “IRE1 activating compounds for use in therapy” (The Scripps Research Institute, priority 2019, dated 2022).

One data set concerns DNAJB9. Briefly: DNAJB9 expression in SHSY5Y cells overexpressing APP SW. It counts as cell-based.
The subject of data set [1] is APP. Briefly: APP immunoblots of lysates and conditioned media of CHO 7PA2 cells. The settings on record: CHO 7PA2, 10 μM. In kind it is cell-based. On the procedure:
FIGS. 5A-5D. […] Cells were treated for 18 hours, media was then replaced and conditioned in the presence of treatments for 24 hours before harvesting for ELISA assay. Error bars represent SEM for n=3 replicates. Statistics calculated from one-tailed Student's t-test. *p<0.05, **p<0.01, ***p<0.001 (FIG. 5A). Quantification of media and lysate immunoblots from 474 treatment (10 μM) of APP. Error bars represent Standard Deviation for n=3 replicates. Statistics calculated from one-tailed Student's t-test. *p<0.05, **p<0.01 ***p<0.001 (FIG. 5B). Plot showing fraction of total remaining APP at each time point after S35 metabolic labeling of newly synthesized protein, accounting for the sum of APP in lysate and media. Error bars represent Standard Deviation for n=3 replicates. Statistics calculated from one-tailed Student's t-test. *p<0.05, **p<0.01, ***p<0.001 (FIG. 5C). Plot showing fraction of secreted APP collected at 2 hours after metabolic labeling. Error bars represent Standard Deviation for n=3 replicates. Statistics calculated from one-tailed Student's t-test. *p<0.05, **p<0.01, ***p<0.001 (FIG. 5D). […]
A general note: In western blotting, separated proteins are transferred to a membrane and probed.

The subject of another data set is ATF6 target genes. Briefly: Liver RNA sequencing of DIO mice, ATF6 targets. In kind it is in vivo, mouse. The settings on record: once-daily IP 50 mg/kg, 6 weeks. On the procedure:
(§1) FIGS. 7A-7D. RT-PCR of Xbp1s and the IRE1/XBP1s target gene Erdj4 from adipose tissue post single IP dose of 474 (FIG. 7A). Liver RNAseq profiles of ATF6, IRE1 and PERK target genes expressed as log 2 fold change of chronic 474 treatment compared to vehicle (FIG. 7B). Body weight (FIG. 7C) and food intake (FIG. 70) over 6 weeks of dosing.
(§2) To test the efficacy of pharmacologic IRE1 activation in mitigating T2D, we chronically administered 474 by once-daily IP injections at 50 mg/kg for a period of 6 weeks to Diet-Induced Obese (DIO) mice, a model of T2D.

The nature of data set [2]: Toxicity, body weight and food intake in DIO mice. It counts as in vivo. The protocol:
as §1, §2

The subject of the next data set is PERK target genes. Put plainly: Liver RNA sequencing of DIO mice, PERK targets. It counts as in vivo, mouse. The following applies: once-daily IP 50 mg/kg, 6 weeks. On the procedure:
as §1, §2

The subject of data set [3] is APP. Put plainly: [35S] metabolic labeling of APP in 7PA2 CHO cells. It counts as cell-based. The protocol:
FIGS. 5A-5D. […] Cells were treated for 18 hours, media was then replaced and conditioned in the presence of treatments for 24 hours before harvesting for ELISA assay. Error bars represent SEM for n=3 replicates. Statistics calculated from one-tailed Student's t-test. *p<0.05, **p<0.01, ***p<0.001 (FIG. 5A). Quantification of media and lysate immunoblots from 474 treatment (10 μM) of APP. Error bars represent Standard Deviation for n=3 replicates. Statistics calculated from one-tailed Student's t-test. *p<0.05, **p<0.01 ***p<0.001 (FIG. 5B). […] Statistics calculated from one-tailed Student's t-test. *p<0.05, **p<0.01, ***p<0.001 (FIG. 5C). […] Statistics calculated from one-tailed Student's t-test. *p<0.05, **p<0.01, ***p<0.001 (FIG. 5D).
[^35S] metabolic labeling experiments were performed as previously described^8. […] Band intensities were quantified by densitometry in ImageQuant. Fraction secreted was calculated using the equation: fraction secreted=[extracellular [^35S]-APP signal at t/(extracellular [^35S]-APP signal at t=0+intracellular[^35S]-APP signal at t=0)]. Fraction remaining was calculated using the equation: [(extracellular [^35S]-APP signal at t+intracellular [^35S]-APP signal at t)/(extracellular [^35S]-APP signal at t=0+intracellular [^35S]-APP signal at t=0)].

For a further data set, the system named is pancreatic islets. Briefly: Glucose stimulated insulin secretion in islets isolated from treated mice. It counts as in vivo, mouse. The settings on record: relative to vehicle-treated controls. An excerpt: FIGS. 8A-8E. Oral glucose tolerance test in DIO mice treated with either Vehicle or 474 for 3 weeks (n=8) (FIG. 8A). Serum glucose and insulin levels post 4 weeks of dosing with 474 or vehicle (FIG. 8B). Glucose stimulated insulin secretion in islets isolated from 474 or vehicle treated mice. (FIG. 8C). Hepatic triglyceride content (FIG. 8D) and gene expression profiles of gluconeogenic genes (FIG. 8E) at 6 weeks post dosing.
This effect can be rationalized, at least in part, by enhanced pancreatic f-cell function in 474-treated […], as shown by our studies in isolated pancreatic islets from vehicle- and 474-treated mice. […] Given the well-documented link between IRE1 and hepatic metabolism in T2D^55, we also examined markers of liver function after 474 treatment. We found reduced liver triglyceride accumulation in 474-treated mice relative to controls (FIG. 80).

Take `Cc1ccc(OCCN(C)C(=O)Cn2cc(NC(=O)CCOc3ccccc3)cn2)cc1` [Compound 474]: in the data set on DNAJB9, the DNAJB9 expression entry is “further increased”. Moreover, in the data set on APP [1], the “APP levels in lysates and conditioned media” value is “reduced APP levels in both lysates and conditioned media”. Further, in the data set with ATF6 target genes, the “ATF6 transcriptional response in liver” value is recorded as “modest induction”. Moreover, in data set [2] (6-week dosing period), the “body weight and food intake” value was “remaining similar in all groups”. Besides, the toxicity entry in data set [2] (DIO mice, once-daily IP 50 mg/kg, 6 weeks) is given as “no evident toxicity”. Also, the “PERK target genes in liver” value with PERK target genes is given as “no induction”. In addition, in the data set with APP [3], the APP degradation result is given as “increased APP degradation” and the “secretion of soluble APP into the media” value was “reduced the secretion of soluble APP”. Besides, the “insulin secretion from islets upon stimulation with glucose” value in the data set on pancreatic islets was “dramatic increase”.
